From publication PMC4586312 (Nanomedicine : nanotechnology, biology, and medicine, 2015)

Legend:
cathepsin B [1] = target: T1, cathepsin B (Homo sapiens, UniProt P07858); assay: fluorescence protease assay; format: biochemical
cathepsin B [2] = target: T1, cathepsin B; assay: fluorogenic substrate cleavage assay; format: biochemical

SMILES | IC50 (cathepsin B [1]) | fluorogenic substrate cleavage assay (cathepsin B [2])
CC(C)C[C@H](NC(=O)OCc1ccccc1)C(=O)N[C@H](C=O)C[C@@H]1CCNC1=O [GC-373] | 9.67 nM | –
Cc1cc(=O)oc2cc(NC(=O)[C@H](CCCNC(=N)N)NC(=O)[C@H](CC(C)C)NC(=O)OCc3ccccc3)ccc12 [Z-Leu-Arg-AMC] | – | The cleavage at the site between arginine and AMC dye by cathepsin B resulted in the increase of fluorescence intensity
